Results on 2 compounds are retold here after patent publication US20110098554A1, “Monitoring of convection enhanced drug delivery” (priority 2004, published 2011).

The test system of data set [1] is striatum of normal Sprague-Dawley (SD) rats. Kind of data set: Cytotoxic tissue response to CED by T2-weighted and diffusion-weighted MRI and histology. As to the method:
The resultant solution was infused into the striatum of normal Sprague-Dawley (SD) rats (males, 250-300 grams). T1-weighted MR images were acquired immediately post treatment to assess the extent of convection. Additionally, T2-weighted and diffusion-weighted MR images were acquired 24 hours post treatment to assess the response of the tissue and its correlation to the extent of convection.
Under full anesthesia, a midline scalp incision was made to identify the bregma. A 1 mm burr hole was made in the right region of the skull, 3 mm anterior and 2 mm lateral to the bregma. A 33-gauge needle attached to a 1000 μl syringe (Gastight; Hamilton) was placed stereotactically 5.5 mm deep into the striatum. The infusion was performed using a BASI syringe pump at a rate of 1 μl/min for a duration ranging from […].
In order to obtain a wide range in volumes of distribution, the infusion times were varied between 17 to 60 minutes. 13 rats were treated with Carboplatin (4 mg/ml, 17 minutes infusion). […]
The volume (in cm^3) of the composition distribution was calculated from the T1-weighted MR images acquired immediately post CED treatment. […] The number of pixels in the ROIs was counted and multiplying by the volume of a single pixel. […]

Another data set has as its system malignant gliomas. To be noted: first 24-48 hours post intratumoral CED, patients with recurrent malignant brain tumors; cited from earlier work.
In the next data set the test system is C26 colon cancer tumors. Put plainly: CED of high viscosity toxic infusates in C26 tumors in mice thigh, MRI. Format: in vivo, balb-c mice. As to the method:
Five balb-c mice, bearing large (over 2 cm in diameter) C26 colon cancer tumors in the thigh, were treated with CED of high viscosity toxic infusates. […] Two mice were treated with a high concentration combination of Ethanol and Cremaphore (150 μl Ethanol and 150 μl Cremaphore diluted with Saline to 1 ml) at infusion rate of 4 μl/min for 105 minutes.
Infusates were mixed with Gd (1:70) prior to treatment. MR images were acquired immediately post treatment to assess the distribution of the drug within the tumor.

Consider `N.N.O=C([O-])C1(C(=O)[O-])CCC1.[Pt+2]` [Carboplatin], for which the “enhancement in diffusion-weighted MR images” value in data set [1] (24 hours post treatment, cases of efficient convection) is on record as “significant enhancement”.
On to `CC(=O)O[C@H]1C(=O)[C@@]2(C)[C@H]([C@H](OC(=O)c3ccccc3)[C@]3(O)C[C@H](OC(=O)[C@H](O)[C@@H](NC(=O)c4ccccc4)c4ccccc4)C(C)=C1C3(C)C)[C@]1(OC(C)=O)CO[C@@H]1C[C@@H]2O` [Taxol®, Paclitaxel], for which, in data set [1] (rat, in vivo), the “histology of en block-resected lesion” value is “Severe damage covering most of the striatum”. The “water diffusion changes on diffusion-weighted MRI” value in the data set with malignant gliomas was “clear changes”. Also, the “tumor tissue response (T2 MRI 24 hours post treatment)” value in the data set on C26 colon cancer tumors (mouse of FIGS. 16, efficient CED) is “complete necrosis”; in the data set with C26 colon cancer tumors (mouse of FIGS. 17, inefficient CED), “no significant change in the tumor”.
